Data on one molecule can be found in patent publication US20160015725A1, “METHODS OF CONTROLLING TUMOR BIOENERGETICS NETWORKS” (THE WISTAR INSTITUTE OF ANATOMY AND BIOLOGY, priority 2012, published 2016).

In experiment [1] the test system is V600E mutant BRAF melanoma cells. Kind of experiment: AMPK and autophagy signaling in mutant BRAF melanoma cells. The format is cell-based, human. From the text:
Human glioblastoma LN229, prostate adenocarcinoma PC3 or LNCaP cells, or normal NIH3T3 fibroblasts were obtained from the American Tissue Culture Collection (ATCC, Manassas, Va.), and maintained in culture according to the supplier's specifications. The following wild type (WT) BRAF N-Ras mutant melanoma cells WM852 and WM1366, and melanoma cells carrying a V600E activating mutation in the BRAF oncogene, 451Lu, Me11617 and WM983B were used in this study. WT or CypD knockout Mouse Embryonic Fibroblasts (MEFs, CypD−/−) were characterized earlier 40. In some experiments, CypD−/− MEFs were stably transfected with control plasmid, WT CypD or peptidyl prolyl isomerase (PPIase)-deficient H168Q CypD mutant cDNA, and analyzed for differential recruitment of HK-II to mitochondrial or cytosolic fractions.
(§1) For Western blotting, protein lysates were prepared from the different cell types in RIPA Buffer (150 mM NaCl, 1.0% Triton X-100, 0.5% sodium deoxycholate, 0.1% SDS, 50 mM Tris, pH 8.0) containing EDTA-free Protease Inhibitor Cocktail (Roche) and Phosphatase Inhibitor Cocktail 2 and 3 (Sigma Aldrich). Equal amounts of protein lysates were separated by SDS gel electrophoresis, transferred to PVDF membranes and incubated with primary antibodies of various specificities. Protein bands were detected by chemiluminescence.
Samples were imaged using a Leica TCS SP2 confocal microscope. For determination of autophagy, cells under the various conditions tested were harvested after 12 h, and analyzed with an antibody to […] (LC3) by Western blotting.

For the next experiment, the system named is CypD. The experiment in a line: Mitochondrial protein folding (detergent solubility). The format is cell-based, human. Particulars: increasing CHAPS concentrations. How it is done:
Mitochondrial protein folding assays were performed as described (Moisoi et al., 2009). Briefly, mitochondrial fractions were isolated from vehicle- or Gamitrinib-treated LN229 cells (5 μM for 12 h) and suspended in equal volume of mitochondrial fractionation buffer containing increasing concentrations of CHAPS (0, 0.05, 0.1, 0.2, 0.5, 1 or 2%). Samples were incubated for 20 min on ice and detergent-insoluble protein aggregates were isolated by centrifugation (20,000 g) for 20 min. Pellets were processed for further analysis.

In another experiment the test system is hexokinase-II (HK-II). The experiment in a line: Subcellular fractionation and Western blotting of hexokinases. The format is cell-based, human. Particulars: LN229, 5 h. As for the experimental part: Mitochondrial fractions were isolated from Gamitrinib treated LN229 cells (0-20 μM for 5 h) using an ApoAlert™ cell fractionation kit (CLONTECH). Briefly, LN229 cells were mechanically disrupted by 60 strokes with a Dounce homogenizer in isolation buffer containing 1 mM DTT plus protease inhibitor cocktail. Cell debris was removed by centrifugation at 700 g for 10 min. The supernatant was further centrifuged at 10,000 g for 25 min, and supernantants or mitochondrial pellets were processed for further analysis.
as §1
A general note: Immunoblotting shows a protein as a band on a membrane.

For another experiment, the system named is NIH3T3 fibroblasts. Kind of experiment: ATP production and AMPK/mTORC1 phosphorylation in non-transformed cells. The format is cell-based. As for the experimental part:
as §1
(§2) Intracellular ATP concentrations were measured by the luciferin—luciferase method using an ATP measuring kit (Biochain). The ATP concentration in each extract was measured with a microplate luminometer (Beckman Coulter) against standard ATP solutions used as reference. In some experiments, PC3 or LN229 cells were preincubated with sodium pyruvate for 7 h in the presence of vehicle or Gamitrinib before determination of ATP production.

Experiment [2] concerns FF2508 or MRC5 normal primary human fibroblasts. Kind of experiment: ATP production in normal fibroblasts. The format is cell-based. As for the experimental part: as §2
Experiment [3] relates to LN229 cells. The experiment in a line: ROS production, H2-DCFA labeling. Format: cell-based, human. Particulars: cytotoxic or non-cytotoxic concentrations, various time intervals.
The subject of experiment [4] is TRAMP (Transgenic Adenocarcinoma of the Mouse Prostate) mice. The settings on record: cited from earlier work.
For a further experiment, the system named is hexokinase. Kind of experiment: Hexokinase activity in mitochondrial fractions of treated cells. Format: cell-based, human. The settings on record: LN229 mitochondrial fractions, 5 h. How it is done:
HK activity in LN229 cells was measured as the total glucosephosphorylating activity using a standard G6PDH-coupled assay kit (BioVision). Mitochondria isolated from Gamitrinib- or 17-AAG-treated LN229 cells, or cultures transfected with various siRNAs were homogenized in cold PBS, followed by centrifugation at 1000 g for 10 min at 4° C. HK activity was determined by analysis of G6P-dependent conversion of NADP to NADPH in the presence of excess […] in the presence of 2 mM glucose, and quantification of absorbance at 450 nm. All assays were performed at 25° C. under conditions of linear HK-limited NADPH formation.

The subject of experiment [5] is LN229 cells. The experiment in a line: Extracellular lactate. Format: cell-based, human. The settings on record: tumor cells. How it is done: Glucose concentrations in cell culture media were determined using a Glucose kit (Sigma-Aldrich). Briefly, 2×10^6 cells were seeded in 10 cm2 tissue culture dishes for 48 h, mixed with DMEM in the presence of Gamitrinib or 17-AAG (0-20 μM) for additional 4 h, and 200 μl aliquots of culture medium were incubated with 1 ml assay mixture, containing 1.5 mM NAD, 1 mM ATP, 1.0 U/ml Hexokinase, and 1.0 U/ml G6PDH. The glucose concentration under the various conditions was determined by measuring the amount of reduced NAD to NADH by G6PDH, and quantified spectrophotometrically at 340 nm wavelength. Extracellular lactate was measured by a colorometric assay kit (Abcam). Culture media from LN229 cells was replaced with DMEM containing vehicle (DMSO) or Gamitrinib (5 μM) for 5 h. Changes in lactate concentrations were measured by analysis of lactate-dependent conversion of NADP to NADPH in the presence of excess lactate dehydrogenase (LDH), and quantified by absorbance at 450 nm. All assays were performed at 25° C. under conditions of linear lactate-limited NADPH formation.

The next experiment concerns tumor cells. The experiment in a line: ER UPR markers (Western blotting, Xbp1 splicing, RT-qPCR). The format is cell-based, human.
The subject of experiment [6] is multiple tumor cell types. The experiment in a line: ATP production in tumor cells (luciferin-luciferase). Format: cell-based, human. How it is done: as §2

On to `CO[C@H]1/C=C\C=C(/C)C(=O)NC2=CC(=O)C(NCCCCCC[P+](c3ccccc3)(c3ccccc3)c3ccccc3)=C(C[C@@H](C)C[C@H](OC)[C@H](O)[C@@H](C)/C=C(\C)[C@@H]1OC(N)=O)C2=O` [Gamitrinib], for which the autophagy result in experiment [1] (BRAF mutant cells) is on record as “did not adaptively increase autophagy”. The AMPK activation entry in experiment [1] (BRAF mutant melanoma cells) is “failed to activate AMPK”. The COX-IV solubility result in the experiment on CypD was “indistinguishable in control or Gamitrinib-treated cells”. Moreover, the CypD solubility entry in the experiment with CypD (vs untreated cultures) is “caused CypD to remain insoluble over a broad range of detergent concentrations”. For the same molecule, in the experiment with hexokinase-II (HK-II), the “HK-II localization (mitochondria vs cytosol)” value is listed as “concentration-dependent release of hexokinase-II (HKII) from mitochondria”. In the experiment on NIH3T3 fibroblasts, the “ATP production, AMPK or mTORC1 phosphorylation” value is reported as “did not affect ATP production, or AMPK or mTORC1 phosphorylation”. Besides, in [2], the ATP production entry was “did not change ATP production”. Moreover, the “production of reactive oxygen species (ROS)” value in the experiment on LN229 cells [3] is “had no effect on production of reactive oxygen species (ROS)”. The “residual prostatic adenocarcinoma at end of experiment” value in experiment [4] (5 mg/kg i.p., 3 d on/2 d off) is recorded as “only one animal displayed a small residual area of prostatic adenocarcinoma”. For the same molecule, in [4] (systemic treatment), the “Prostatic Intraepithelial Neoplasia (PIN)” value is “did not affect Prostatic Intraepithelial Neoplasia (PIN)”; the “primary and metastatic prostate cancer growth” value is “inhibited primary and metastatic prostate cancer growth”. In addition, the hexokinase activity result in the experiment with hexokinase is “a decrease in hexokinase activity”. Besides, the extracellular lactate levels result in the experiment on LN229 cells [5] is “reduced”. Further, in the experiment with tumor cells (Gamitrinib combined with 2-DG), the “Grp78, CHOP or C/EBPβ expression, combined with 2-DG” value is given as “translational suppression of Grp78, CHOP or C/EBPβ”. The “mRNA expression of CHOP, C/EBPβ and Grp78” value in the experiment with tumor cells (quantitative PCR) was “time-dependent upregulation of ER UPR markers, CHOP, C/EBPβ and Grp78”. Also, in the experiment on tumor cells (tumor cells), the “C/EBPβ and CHOP expression” value was “induction of transcription factors, CCAAT-enhancer binding protein (C/EBPβ) and C/EBP homology protein (CHOP)”; the Grp78 expression entry is reported as “upregulation of the ER chaperone, Grp78”; the “Xbp1 mRNA splicing” value is “de novo mRNA splicing, i.e. activation, of its target, X-Box Protein-1, Xbp1”; the eIF2α phosphorylation result is reported as “transient phosphorylation of PERK-regulated eIF2α”. In the experiment on tumor cells (tumor cells), the “time to induction of ER UPR” value is recorded as no more than 1 h. Further, the IRE-1 expression result in the experiment with tumor cells (within 1 h) was “increased expression of Inositol-Requiring-1 (IRE-1) kinase”. Moreover, in [6] (multiple tumor cell types), the “time to inhibition of ATP production” value was no more than 5 h. For the same molecule, the ATP production result in [6] (tumor cell types, non-cytotoxic concentrations, 5 h) is listed as “concentration-dependent inhibition of ATP production”.
